Target: T1, Gonadotropin-releasing hormone receptor (Homo sapiens, UniProt P30968)
T1 sequence (P30968 whole entry): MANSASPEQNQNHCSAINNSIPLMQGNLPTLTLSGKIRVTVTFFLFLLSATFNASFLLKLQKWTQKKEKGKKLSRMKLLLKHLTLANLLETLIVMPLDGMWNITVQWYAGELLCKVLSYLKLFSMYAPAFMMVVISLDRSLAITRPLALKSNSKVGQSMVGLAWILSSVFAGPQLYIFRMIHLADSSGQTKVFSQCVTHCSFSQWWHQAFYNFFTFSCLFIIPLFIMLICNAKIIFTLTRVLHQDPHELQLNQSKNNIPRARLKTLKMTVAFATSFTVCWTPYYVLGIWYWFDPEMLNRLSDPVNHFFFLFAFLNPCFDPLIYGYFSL
Experiment: Binding affinity was determined against human gonadotropin-releasing hormone receptor

Row | SMILES | Ki
1 | COc1cccc(-c2c3n(c(=O)n(CC(N)c4ccccc4)c2=O)C(c2ccccc2F)CS3)c1Cl (stereo not given) | 4.5 nM
2 | COc1cccc(-c2c3n(c(=O)n(CC(N)c4ccccc4)c2=O)C(c2ccccc2)CO3)c1 (stereo not given) | 870 nM
3 | COc1cccc(-c2c3n(c(=O)n(CCNCc4ccccc4)c2=O)[C@@H](c2ccccc2)CO3)c1F | 460 nM
4 | NC(Cn1c(=O)c(-c2ccccc2F)c2n(c1=O)C(c1ccccc1F)CO2)c1ccccc1 (stereo not given) | 230 nM
5 | COc1cccc(-c2c3n(c(=O)n(CC(N)c4ccccc4)c2=O)C(c2ccccc2)CO3)c1F (stereo not given) | 125 nM

The next lines start with the values.

Row | Ki | SMILES
6 | 93 nM | NC(Cn1c(=O)c(-c2ccccc2Cl)c2n(c1=O)C(c1ccccc1F)CS2)c1ccccc1 (stereo not given)
7 | 40 nM | COc1cccc(-c2c3n(c(=O)n(CC(N)c4ccccc4)c2=O)C(c2ccccc2F)CS3)c1F (stereo not given)
8 | 700 nM | NC(Cn1c(=O)c(-c2ccccc2F)c2n(c1=O)C(c1ccccc1)CO2)c1ccccc1 (stereo not given)
9 | 110 nM | N[C@@H](Cn1c(=O)c(-c2ccccc2F)c2n(c1=O)C(c1ccccc1)CS2)c1ccccc1 (stereo not given in full)
10 | 220 nM | NC(Cn1c(=O)c(-c2ccccc2F)c2n(c1=O)C(c1ccccc1F)CS2)c1ccccc1 (stereo not given)

Reference: ChEMBL document CHEMBL1142009, “Efficient synthesis of bicyclic oxazolino- and thiazolino[3,2-c]pyrimidine-5,7-diones and its application to the synthesis of GnRH antagonists” (Bioorg Med Chem Lett, 2005)
